For this assay, the target named is T1, Heparanase (Homo sapiens, UniProt Q9Y251).
T1 sequence (Q9Y251 whole entry): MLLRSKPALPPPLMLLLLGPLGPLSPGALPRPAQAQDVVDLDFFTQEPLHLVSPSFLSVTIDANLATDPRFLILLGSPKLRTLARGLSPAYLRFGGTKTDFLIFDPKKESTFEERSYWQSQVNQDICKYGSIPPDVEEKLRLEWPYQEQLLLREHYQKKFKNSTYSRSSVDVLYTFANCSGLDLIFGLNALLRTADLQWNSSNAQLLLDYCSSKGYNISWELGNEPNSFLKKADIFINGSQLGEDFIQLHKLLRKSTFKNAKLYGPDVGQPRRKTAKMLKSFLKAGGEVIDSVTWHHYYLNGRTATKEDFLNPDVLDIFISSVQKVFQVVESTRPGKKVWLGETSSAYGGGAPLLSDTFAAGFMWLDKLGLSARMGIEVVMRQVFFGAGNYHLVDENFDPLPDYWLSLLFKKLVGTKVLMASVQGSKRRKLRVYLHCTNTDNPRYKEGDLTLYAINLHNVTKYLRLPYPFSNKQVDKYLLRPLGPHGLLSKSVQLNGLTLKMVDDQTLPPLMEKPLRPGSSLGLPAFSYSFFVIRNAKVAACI
The assay is described as follows: Inhibition of recombinant HPSE (unknown origin) using fondaparinux as substrate incubated for 3 hrs in absence of light by WST1 assay.

SMILES strings stand for the structures.

For the molecule `CC(=O)N[C@H]1[C@@H](O[C@@H](CO)C(O[C@H](O)CO)C(=O)O)O[C@H](CO)[C@@H](O[C@@H]2OC(C(=O)O)[C@@H](O[C@H]3O[C@H](CO)[C@@H](O)[C@H](O)[C@H]3NC(C)=O)[C@H](O)[C@H]2OS(=O)(=O)O)[C@@H]1O` (stereo partly specified), the IC50 amounted to 5 nM.

Usually IC50 stands for the concentration that inhibits the measured activity by half.

The values above are taken from BindingDB's records for doi:10.1021/acs.jmedchem.8b01497 ("Sapienza" Universit&#163, 2018).
